Measurements from patent publication US4387238A, “Epoxysuccinamic acid compounds” (Taisho Pharmaceutical Co., Ltd., priority 1978, dated 1983).
Where two headings read alike, the source gives them in different places.

Tests used:
[1] = test system: adjuvant-induced polyarthritis; test: Effect on the development of adjuvant-induced polyarthritis in rat (hind paw volume); format: in vivo, Sprague Dawley rat; conditions: 30 mg/kg of body weight, daily oral, 8 rats/group
Description: The compounds of the present invention show excellent anti-inflammatory activity as measured by their ability to inhibit adjuvant induced polyarthritis as compared with the known epoxysuccinates. That is, they show potent and continuous effectiveness on oral administration of smaller components than the known epoxysuccinic acid compounds. Effect of the compounds of the present invention on the development of adjuvant-induced polyarthritis in rat was assayed as follows: Adjuvant arthritis is produced by a single intracutaneous injection of 0.1 ml of the adjuvant mixture containing heat-killed mycobacteria of the human Aoyama B strain suspended in liquid paraffin in 0.6% in the middle part of the distal tail of Sprague Dawley rat (female, 8 weeks old). The compounds suspended in 0.5% carboxymethylcellulose solution protect the animal against the development of lession of adjuvant arthritis in daily oral administration beginning on the day of adjuvant injection and continuing for 24 days thereafter. The activity is measured as the mean inhibition percent for the increase of the hind paw volume of the 8 rats/group on the days 17 and 23 on which the legs become inflamed and reach maximum volumes. The compound Nos. in Table 1 are as defined in Examples as described hereinafter.

[2] = target: T1, papain (Carica papaya, UniProt P00784); test: Papain inhibitory activity (milk casein proteolysis); format: biochemical; design: unit not given beside the values; conditions: amount of inhibitor for 50% inhibition; pH 6.8, 40° C., casein substrate
T1 construct: purchased Sigma Chem. Co
T1 sequence (P00784 134-345): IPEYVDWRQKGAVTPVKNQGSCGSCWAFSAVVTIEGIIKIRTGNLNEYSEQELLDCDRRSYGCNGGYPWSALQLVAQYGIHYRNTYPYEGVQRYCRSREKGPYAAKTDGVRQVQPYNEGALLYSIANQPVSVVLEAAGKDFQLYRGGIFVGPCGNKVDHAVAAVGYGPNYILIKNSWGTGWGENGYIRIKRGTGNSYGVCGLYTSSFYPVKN
Description: Papain inhibitory activity of the compounds of the present invention was assayed as follows: To 0.5 ml of a solution of papain (80 μg/ml, Sigma Chem. Co., 2x, cry.), were added 0.25 ml of 40 mM cysteine dissolved in 20 mM disodium ethylenediamine tetraacetic acid solution adjusted pH to 6.8 with sodium hydroxide and 0.25 ml of 33 mM phosphate buffer (pH 6.8) with or without inhibitor. After incubation for 15 minutes at 40° C., the resulting mixture was added to 5 ml of 1% milk casein solution in the same buffer as described above, and further incubated for 10 minutes at 40° C. Then the mixture was mixed with 5 ml of 0.44 M trichloroacetic acid solution and followed by filtration with a sheet of Toyo filter paper No. 4.
The extinction of the filtrate was read at 280 nm. The percent inhibition was calculated from the formula, 100×(B-A)/B; wherein B stands for the absorbance without inhibitor and A for the absorbance with inhibitor. The compound Nos. in Table 2 are as defined in Examples as described hereinafter.

[3] = 408 h, day 17, mean inhibition for increase of hind paw volume, read-out: Inhibition(%) 17 days
[4] = 552 h, day 23, mean inhibition for increase of hind paw volume, read-out: Inhibition(%) 23 days

SMILES	inhibition in vivo at 30 mg/kg [1, 3] [%]	inhibition in vivo at 30 mg/kg [1, 4] [%]	ID50 [2]
CCOC(=O)[C@@H]1O[C@H]1C(=O)Nc1ccccc1 (relative stereo) [Compound No. 1, ethyl N-phenyl-2,3-epoxysuccinamate]	70	62	24.04 γ
CCOC(=O)[C@@H]1O[C@H]1C(=O)Nc1ccc([N+](=O)[O-])cc1 (relative stereo) [Compound No. 5, ethyl N-4'-nitrophenyl-2,3-epoxysuccinamate]	65	48	22.32 γ
O=C(NC1CCCCC1)[C@@H]1O[C@H]1C(=O)OC1CCCC1 (relative stereo) [Compound No. 25, cyclopentyl N-cyclohexyl-2,3-epoxysuccinamate]	76	58	3.68 γ
CCOC(=O)[C@@H]1O[C@H]1C(=O)N(C)C1CCCCC1 (relative stereo) [Compound No. 31, ethyl N-methyl-N-cyclohexyl-2,3-epoxysuccinamate]	45	38	53.19 γ
CC(C)COC(=O)[C@H]1O[C@@H]1C(=O)Nc1ccccc1 (relative stereo) [Compound No. 40, Isobutyl N-phenyl-2,3-epoxysuccinamate]	40	35	13.20 γ
O=C(Nc1ccccc1)[C@H]1O[C@@H]1C(=O)OC1CCCCC1 (relative stereo) [Compound No. 45, Cyclohexyl N-phenyl-2,3-epoxysuccinamate]	65	49	5.89 γ
O=C(NCc1ccccc1)[C@H]1O[C@@H]1C(=O)Oc1ccccc1 (relative stereo) [Compound No. 48, Phenyl N-benzyl-2,3-epoxysuccinamate]	45	40	3.83 γ
CCNC(=O)[C@H]1O[C@@H]1C(=O)OC1CCCCC1 (relative stereo) [Compound No. 66, Cyclohexyl N-ethyl-2,3-epoxysuccinamate]	75	62	11.05 γ
CCOC(=O)[C@@H]1O[C@H]1C(=O)N1CCC(C)CC1 (relative stereo) [Compound No. 76, ethyl N-3'-methylpentamethylene-2,3-epoxysuccinamate]	48	42	79.53 γ
O=C(O)[C@@H]1O[C@H]1C(=O)NCC1CCCCC1 (relative stereo) [Compound No. 98, potassium N-cyclohexanemethyl-2,3-epoxysuccinamate]	55	41	0.205 γ
C=CCOC(=O)[C@H]1O[C@@H]1C(=O)NCC1CCCC1 (relative stereo) [compound 38, Allyl N-cyclopentanemethyl-2,3-epoxysuccinamate]	–	–	4.26 γ
COC(=O)[C@@H]1O[C@H]1C(=O)NC(C)C (stereo in doubt) [Compound No. 34, Methyl N-isopropyl-2,3-epoxysuccinamate]	–	–	32.35 γ
COC(=O)[C@H]1O[C@@H]1C(=O)NC(C)C (stereo in doubt) [Compound No. 60, Methyl N-isopropyl-2,3-epoxysuccinamate]	–	–	32.35 γ
CCOC(=O)[C@@H]1O[C@H]1C(=O)N1CCOC(C)C1 (stereo partly shown) [Compound No. 33, ethyl N-1'-methyloxydiethylene-2,3-epoxysuccinamate]	–	–	95.10 γ
CCOC(=O)C1OC1C(=O)N1CCSCC1C (stereo not shown) [Compound No. 80, Ethyl N-1'-methylthiadiethylene-2,3-epoxysuccinamate]	–	–	120.53 γ
CCOC(=O)C1OC1C(=O)N1CCCC1C(=O)OCc1ccccc1 (stereo not shown) [Compound No. 86, ethyl N-1'-carbobenzoxytetramethylene-2,3-epoxysuccinamate]	–	–	105.50 γ
CCOC(=O)C1OC1C(=O)N1CCCC1C(=O)OC (stereo not shown) [Compound No. 87, ethyl N-1'-carbomethoxytetramethylene-2,3-epoxysuccinamate]	–	–	98.10 γ
CCCCOC(=O)C1CCCN1C(=O)C1OC1C(=O)OCC (stereo not shown) [Compound No. 88, ethyl N-1'-carbobutoxytetramethylene-2,3-epoxysuccinamate]	–	–	118.41 γ
O=C(O)C1OC1C(=O)N1CCCC1C(=O)O (stereo not shown) [Compound No. 99, potassium N-1'-carbopotassium oxytetramethylene-2,3-epoxysuccinamate]	–	–	0.104 γ
O=C(O)C1OC1C(=O)N1CCCC1C(=O)O (stereo not shown) [Compound No. 106, N-1'-carboxytetramethylene-2,3-epoxysuccinamic acid]	–	–	0.301 γ
